Data from patent US8975279B2, “Amine salts of laquinimod” (Teva Pharmaceutical Industries, Ltd., priority 2012, dated 2015).
Converted amounts (≈) assume the structure as drawn. “And” between values parts separate entries of the source, which are not always exact repeats. Equal values may be shown once. “Also recorded” adds a separate entry of the source. Where a name gives a salt, the structure may show the parent alone. Read-outs that look alike come from different tables or passages of the source. Marks after values point to notes of the source that are not given here.

Tests used:
[1] = Physical stability in glass vials at +5° C., air atmosphere; format: physicochemical; settings: for Sample appearance: glass vials, air atmosphere
[2] = Aqueous solubility of laquinimod and its salts; format: physicochemical; settings: for Aqueous solubility: water
[3] = Physical stability on exposure to atmospheric air at room temperature; format: physicochemical
[4] = cited from earlier work
[5] = cited from earlier work; remark: listed apart in the source
[6] = cited from earlier work; for intrinsic solubility: free laquinimod in water
[7] = +5° C., after 10 months of storage
[8] = sealed transparent glass vials at +5° C. for 6 months
[9] = +5° C., after 9 months of storage
[10] = sealed transparent glass vials at +5° C. for 3 months
[11] = RH=25-30%, T=18-20° C., 4 hours
[12] = +5° C., after 7 months of storage

CCN(C(=O)c1c(O)c2c(Cl)cccc2n(C)c1=O)c1ccccc1 [Batch 1, laquinimod meglumine]
Physical stability (physical change) [1, 7]: no sign of physical change
Sample appearance ([1]; +5° C., 6 months): White flowable powder
Sample appearance ([1]; +5° C., last row of Table 7.A, time printed 0 month): White flowable powder
Sample appearance ([1]; +5° C., time 0 month): White flowable powder
Physical stability (physical change) [1, 8]: No physical change was observed
Aqueous solubility [2]: 1330 mg/ml H2O
Aqueous solubility ([2]; depends on preparation method and form, listed as 1.1): 1330 mg/mL
Physical stability ([3]; RH=38%, open dish, 20 hours): No signs of aggregation or deliquescence were observed

CCN(C(=O)c1c(O)c2c(Cl)cccc2n(C)c1=O)c1ccccc1 [Batch 3, laquinimod meglumine]
Physical stability (physical change) ([1]; +5° C., after 5 months): physical change was observed
Sample appearance ([1]; +5° C., 6 months): lumped white powder, with signs of deliquescence
Physical stability (physical change) [1, 8]: Physical change was observed

CCN(C(=O)c1c(O)c2c(Cl)cccc2n(C)c1=O)c1ccccc1 [Batch 4, laquinimod meglumine]
Physical stability (physical change) [1, 7]: no sign of physical change
Sample appearance ([1]; +5° C., 6 months): white powder with no signs of deliquescence
Physical stability (physical change) [1, 8]: No physical change was observed
Aqueous solubility [2]: 1050 mg/ml H2O
Aqueous solubility ([2]; depends on preparation method and form, listed as 1.4): 1050 mg/mL

CCN(C(=O)c1c(O)c2c(Cl)cccc2n(C)c1=O)c1ccccc1 [Batch 6, laquinimod choline hydroxide]
Physical stability (physical change) ([1]; +5° C., after 5 months): developed color and deliquescence occurred
Sample appearance ([1]; +5° C., 6 months): yellowish semi-solid with signs of deliquescence
Sample appearance ([1]; +5° C., time 0 month): White glassy solid
Physical stability (physical change) [1, 8]: Physical change was observed

CCN(C(=O)c1c(O)c2c(Cl)cccc2n(C)c1=O)c1ccccc1 [Batch 7, laquinimod choline hydroxide]
Physical stability (physical change) [1, 9]: no sign of physical change
Sample appearance ([1]; +5° C., 5 months): White powder
Sample appearance ([1]; +5° C., 6 months): white powder with no signs of deliquescence
Sample appearance ([1]; +5° C., 9 months): White powder
Sample appearance ([1]; +5° C., time 0 month): White powder
Physical stability (physical change) [1, 8]: No physical change was observed
Aqueous solubility [2]: > 2100 mg/ml H2O
Aqueous solubility ([2]; depends on preparation method and form, listed as 2.3): >2100** mg/ml

CCN(C(=O)c1c(O)c2c(Cl)cccc2n(C)c1=O)c1ccccc1 [Batch 8, laquinimod choline hydroxide]
Physical stability (physical change) [1, 9]: no sign of physical change
Sample appearance ([1]; +5° C., 5 months): White powder
Sample appearance ([1]; +5° C., 6 months): white powder with no signs of deliquescence
Sample appearance ([1]; +5° C., 9 months): White powder
Sample appearance ([1]; +5° C., time 0 month): White powder
Physical stability (physical change) [1, 8]: No physical change was observed
Aqueous solubility [2]: 2000 mg/ml H2O
Aqueous solubility ([2]; depends on preparation method and form, listed as 2.4): >2000** mg/ml

CCN(C(=O)c1c(O)c2c(Cl)cccc2n(C)c1=O)c1ccccc1 [Batch 9, laquinimod L-lysine]
Physical stability (physical change) [1, 9]: no sign of physical change
Sample appearance ([1]; +5° C., 5 months): White flowable powder
Sample appearance ([1]; +5° C., 6 months): white flowable powder
Sample appearance ([1]; +5° C., 9 months): White flowable powder
Sample appearance ([1]; +5° C., time 0 month): White flowable powder
Physical stability (physical change) [1, 8]: No physical change was observed
Aqueous solubility [2]: 1176 mg/ml H2O
Aqueous solubility ([2]; depends on preparation method and form, listed as 3.1): 1176 mg/mL

CCN(C(=O)c1c(O)c2c(Cl)cccc2n(C)c1=O)c1ccccc1 [Batch 10, laquinimod L-lysine]
Physical stability (physical change) [1, 9]: no sign of physical change
Sample appearance ([1]; +5° C., 5 months): White flowable powder
Sample appearance ([1]; +5° C., 6 months): white powder
Sample appearance ([1]; +5° C., 9 months): White flowable powder
Sample appearance ([1]; +5° C., time 0 month): White flowable powder
Physical stability (physical change) [1, 8]: No physical change was observed
Aqueous solubility [2]: 1000 mg/ml H2O
Aqueous solubility ([2]; depends on preparation method and form, listed as 3.2): 1000 mg/mL

CCN(C(=O)c1c(O)c2c(Cl)cccc2n(C)c1=O)c1ccccc1 [Batch 12, laquinimod monoethanolamine]
Sample appearance ([1]; +5° C., 3 months): yellowish aggregated powder
Physical stability (overall) ([1]; refrigerator, atmospheric air, overall statement): less stable
Physical stability (physical change) [1, 10]: Physical change was observed
Physical stability [3, 11]: no change
Physical stability ([3]; RH=25-30%, T=18-20° C., 24 hours): yellowish aggregated powder

CCN(C(=O)c1c(O)c2c(Cl)cccc2n(C)c1=O)c1ccccc1 [Batch 13, laquinimod monoethanolamine]
Physical stability (physical change) [1, 12]: slight aggregation was developed
Sample appearance ([1]; +5° C., 3 months): off-white powder
Sample appearance ([1]; +5° C., time 0 month): White powder
Aqueous solubility [2]: 1176 mg/ml H2O
Aqueous solubility ([2]; depends on preparation method and form, listed as 4.2): 1176 mg/mL

CCN(C(=O)c1c(O)c2c(Cl)cccc2n(C)c1=O)c1ccccc1 [Batch 14, laquinimod monoethanolamine]
Physical stability (physical change) [1, 12]: no sign of physical change
Sample appearance ([1]; +5° C., 3 months): white powder
Physical stability (physical change) [1, 10]: No physical change was observed
Physical stability [3, 11]: no change
Physical stability ([3]; RH=25-30%, T=18-20° C., 16 hours): aggregated white powder

CCN(C(=O)c1c(O)c2c(Cl)cccc2n(C)c1=O)c1ccccc1 [Batch 15, laquinimod monoethanolamine]
Sample appearance ([1]; +5° C., 3 months): off-white powder
Sample appearance ([1]; +5° C., time 0 month): White powder
Physical stability (physical change) [1, 10]: Small physical change was observed; also recorded: color change was developed
Aqueous solubility [2]: 625 mg/ml H2O
Aqueous solubility ([2]; depends on preparation method and form, listed as 4.4): 625 mg/mL
Physical stability ([3]; RH=29-32%, T=18-20° C., 4 hrs): no change; remained white powder
Physical stability ([3]; RH=29-32%, T=18-20° C., 25 hrs): no change; remained white powder

C[N+](C)(C)CCO.[OH-] [Choline hydroxide]
pKa [4]: 13.9

NCCO.Oc1cc(Cl)ccc1Oc1ccc(Cl)cc1Cl [Monoethanolamine salt of triclosan]
solubility ([5]; pH not given): 5.84 mg/mL

CNCC(O)C(O)C(O)C(O)CO.Oc1cc(Cl)ccc1Oc1ccc(Cl)cc1Cl [Triclosan meglumine salt]
solubility ([5]; pH not given): 12.43 mg/mL

C[N+](C)(C)CCO.O=C([O-])c1ccccc1O [choline salicylate salt, choline salicylate]
solubility (in words) [5]: insoluble

Cc1cnc(NC(=O)C2=C(O)c3ccccc3S(=O)(=O)N2C)s1 [free meloxicam, meloxicam]
solubility ([5]; pH 7.4): 0.74 mg/mL (≈ 2110 µM)

CN1C(C(=O)Nc2ccccn2)=C(O)c2ccccc2S1(=O)=O [free piroxicam, piroxicam]
solubility ([5]; pH 7.4, unit not given): 0.17

CC(C)Cc1ccc(C(C)C(=O)[O-])cc1.[Na+] (stereo not shown) [ibuprofen sodium salt]
solubility ([5]; pH not given): 100 mg/mL

CCN(C(=O)c1c(O)c2c(Cl)cccc2n(C)c1=O)c1ccccc1 [laquinimod L-lysine]
Aqueous solubility ([2]; depends on preparation method and form, listed as L-lysine laquinimod salt): 1000 mg/mL and 1176 mg/mL

CCN(C(=O)c1c(O)c2c(Cl)cccc2n(C)c1=O)c1ccccc1 [laquinimod choline hydroxide]
solubility relative to the sodium salt ([2]; laquinimod choline hydroxide salt vs laquinimod sodium): over 14 times
Aqueous solubility ([2]; depends on preparation method and form, listed as choline hydroxide salt of laquinimod): 2000 mg/mL and 2100 mg/mL

CCN(C(=O)c1c(O)c2c(Cl)cccc2n(C)c1=O)c1ccccc1 [laquinimod meglumine]
Aqueous solubility ([2]; depends on preparation method and form, listed as meglumine laquinimod salt): 1050 mg/mL and 1330 mg/mL

CCN(C(=O)c1c(O)c2c(Cl)cccc2n(C)c1=O)c1ccccc1 [laquinimod monoethanolamine]
Aqueous solubility ([2]; depends on preparation method and form, listed as Laquinimod monoethanoloamine salt): 625 mg/mL and 1176 mg/mL

CCN(C(=O)c1c(O)c2c(Cl)cccc2n(C)c1=O)c1ccccc1 [laquinimod sodium, reference compound]
Aqueous solubility ([6]; existing sodium salt, U.S. Pat. No. 7,589,208): 138 mg/mL
solubility in water according to the USP ([2]; USP descriptive term): freely soluble to soluble

CCN(C(=O)c1c(O)c2c(Cl)cccc2n(C)c1=O)c1ccccc1 [laquinimod, N-ethyl-N-phenyl-1,2-dihydro-4-hydroxy-5-chloro-1-methyl-2-oxoquinoline-3-carboxamide]
intrinsic solubility [6]: 0.007 mg/mL
intrinsic solubility ([6]; listed as Free laquinimod): about 0.007 mg/ml
pKa [4]: 4.2

CNC[C@H](O)[C@@H](O)[C@H](O)[C@H](O)CO.Cc1cnc(NC(=O)C2=C(O)c3ccccc3S(=O)(=O)N2C)s1 [meglumine salt of meloxicam]
Aqueous solubility ([5]; pH 8.57): 2.3 mg/mL

Cc1cnc(NC(=O)C2=C(O)c3ccccc3S(=O)(=O)N2C)s1 [meloxicam sodium salt]
Aqueous solubility ([5]; pH 8.06): 2.0 mg/mL

CN1C(C(=O)Nc2ccccn2)=C(O)c2ccccc2S1(=O)=O.NCCO [monoethanolamine salt of piroxicam]
solubility ([5]; pH 7.4): 126.2 mg/mL
